{
  "source": "patent US11147219B2",
  "about": "“Methods and systems for growing plants using silicate-based substrates, cultivation of enhanced photosynthetic productivity and photosafening by utilization of exogenous glycopyranosides for endogenous glycopyranosyl-protein derivatives, and formulations, process and systems for the same” (Innovation Hammer, LLC, priority 2011, dated 2021)",
  "format_in_all_cases": "in vivo",
  "key": {"[1]": {"tested_on": "Swiss Chard (Beta vulgaris subspecies cicla L., cultivar \"Fordhook Giant\")", "test": "Swiss Chard germination and seedling growth on glass microbead substratum", "conditions": "media containing 100 μM MeM", "procedure": "Treatment of seeds and seedlings by aqueous solutions is exemplified by mannosides supplemented with soluble divalent cations in complete mannosides formulations. […] Benefits of such exemplary seed priming methods are as follows: Germination and early growth of radish (Raphanus sativus L., cultivar “Cherry Bell”) and Swiss Chard (Beta vulgaris subspecies cicla L., cultivar “Fordhook® Giant”) were tested for response to α-mannosides supplemented with Ca^2+ and/or Mn^2+. Rapid assays of radish seed germination and growth used hydroponic cultures with no solid medium; longer experiments with Swiss Chard used a 2-5 mm substratum of 700 μm diameter glass microbeads. […] A seed with an emerged radicle >1 mm was recorded as germinated, and germinated seeds were counted daily, until 95% germination. […]"}, "Radish seedlings": {"tested_on": "Radish seedlings", "test": "Radish seedling assay, immersion in nutrient solution with α-mannosides", "procedure": "Plants were cultured in research facilities and consistency of response to treatments was achieved by supplementation with chelated calcium and manganese. All plants were regularly given modified Hoagland water-culture nutrients. […] Controls were placed in the same location and all plants were given the same irrigation, fertilizers, and handling, but without the experimental compounds. Plants were matched to controls and treated within a week of emergence of cotyledon and true leaves. The performance of compounds was evaluated by comparing means of individual dry weights of shoots and roots. Statistics applied two-tailed Student's t-test with p-values significant within 95% confidence intervals. Counts of populations are “n” values and standard error is denoted “±SE.” Specialty chemicals included the following: tetramethyl-β-D-glucoside (TMG); tetraacetyl-D-glucopyranose (TAG); pentaacetyl-α-D-mannopyranose (MP); p-amino-phenyl-α-D-mannoside (APM); methyl-α-D-mannoside (MeM) and methylglucoside (MeG). MPG was synthesized. 2,3,4,6-tetra-O-acetyl-D-mannopyranose (αβ) was utilized. As required, MP and APM were dissolved in a lower aliphatic alcohol prior to dilution in aqueous media.\nAssay—Radish seedlings were treated with α-mannosides after emergence of radicles. Seedlings were matched and transferred to Nutrient Control or treatment solutions. Assays were maintained under environmental conditions as follow: Photosynthetically active radiation 100 μEin·m^−2·sec^−1, diel cycle of 16:8 h light:dark, 26:26° C."}, "[2]": {"tested_on": "radish (Raphanus sativus L., cultivar \"Cherry Bell\")", "test": "Radish seed germination and seedling growth, nutrient omission media", "conditions": "glycoside alone, no divalent cations", "procedure": "Treatment of seeds and seedlings by aqueous solutions is exemplified by mannosides supplemented with soluble divalent cations in complete mannosides formulations. […] Benefits of such exemplary seed priming methods are as follows: Germination and early growth of radish (Raphanus sativus L., cultivar “Cherry Bell”) and Swiss Chard (Beta vulgaris subspecies cicla L., cultivar “Fordhook® Giant”) were tested for response to α-mannosides supplemented with Ca^2+ and/or Mn^2+. Rapid assays of radish seed germination and growth used hydroponic cultures with no solid medium; longer experiments with Swiss Chard used a 2-5 mm substratum of 700 μm diameter glass microbeads. Neutralization of glass microbeads may be undertaken with dilute mildly acidic solution titrated to pH 6; for example, with mineral acids such as hydrochloric acid, sulfuric acid, nitric acid, and the like; organic acids such as uronic, citric, malic, lactic, salicylic, ascorbic, succinic, oxaloacetic, ketoglutaric, fumaric acids, and amino acids, and the like; artificial biological buffering agents such as TRIS, BIS TRIS, MES, MOPS, HEPES, and the like; fertilizers; and most preferably, phosphates; and the most highly preferred compounds are combinations of compounds in a pH 6-buffer that provide major nutrients for plants, such as MAP with DKP or DAP with MKP; and the like. When test medium was added, the glass microbeads formed an even layer, drawing liquid to the surface by capillary action. Seeds were examined to exclude aberrantly large, small, or damaged seeds, and were placed on the surface of the substratum. For experiments using post-germination seedlings, seeds were germinated in deionized water prior to exposure to nutrient media. A seed with an emerged radicle >1 mm was recorded as germinated, and germinated seeds were counted daily, until 95% germination. There was no visible evidence of either desiccation or waterlogging effects. Glass microbeads were removed by immersion and agitation in water, or manually with fine forceps. Harvested plants were oven-dried to determine dry weight. Treatment and control solutions were prepared by dissolving nutrients in deionized ultrapure water.\nGrowth media were based on omission or inclusion of glycosides and targeted divalent cations. Triose is the abbreviation for α-1,3-α-1,6 mannotriose) and MEM is methyl-α-D-mannoside. Terminology used herein indicates the omission or inclusion of nutrients: 000=control medium with no glycoside, Ca^2+ or Mn^2+; MeMOO=medium with MeM, but no Ca^2+ or Mn^2+; MeMCaO=medium with MeM and Ca^2+, but no Mn^2+, OCaMn=medium with no MeM, but with Ca^2++Mn^2+; and so on. Similar terminology is used for media containing triose. Results cited are means±SE. […]"}, "[3]": {"tested_on": "radish \"Cherry Bell\" Raphanus sativus L.", "test": "Greenhouse foliar treatment of radish, root dry weight", "procedure": "Plant responses to formulations of an alkyl-α-D-mannopyranose and an electron donating-aryl-α-D-mannopyranose were consistent with preferred binding tendencies to displace glucose from storage. Plants were maintained in automated greenhouses controlled for temperature, light and circulation. Environmental conditions during the course of the studies averaged 13:11 hour L:D photoperiod, 25°:20° C. day:night and 20% to 80% relative humidity. Sunlight was supplemented with electrical illumination to achieve photosynthetically active radiation levels ranging from 350 to 600 μmol photons·m^−2·s^−1 at the level of the phylloplane. Solutions for treated and control plants were applied within an hour, otherwise subjecting all plants to identical conditions consistent with good laboratory practices. Solutions applied to controls included nutrients and surfactants identical to the treatment solution, but without the active compound. General supplementation of foliar formulations included the following: 10-100 mM ammonium salt; 1-6 ppm manganese, Mn-EDTA; and 5-10 ppm calcium, Ca-EDTA. For example, foliar solutions of 0.3 mM p-aminophenylmannopyranoside, hereafter referred to as APM, were supplemented with 23 mM ammonium sulfate, (NH4)2SO4, 3 ppm Mn and 6 ppm Ca; and Nutrient Control contained 23 mM (NH4)2SO4, 3 ppm Mn and 6 ppm Ca. The foliar concentrations of Mn and Ca were higher than those specified previously because of the low volumes of foliar applications relative to hydroponic root immersion volumes, and they were particularly effective in combination with foliar applications of compounds because they supported high rates of productivity in the treated plants without phytotoxicity. Compounds for experimentation included the following: methyl-α-D-mannopyranoside (MeM), APM, and methyl-α-D-glucopyranoside (MeG). All foliar solutions were formulated with 1 gm/liter surfactant blend consisting of 0.5 gram DowCorning Q5211 dispersed into 1.5 grams BASF Pluronic L62. As a matter of course, untreated controls that foliar nutrients and wetting agents were not introducing artifacts. The standard volume for foliar application of experimental treatments was 200 liters/hectare. Identical volumes of foliar spray per tray of plant cultures were applied mechanically in a single pass. Controls were placed in the same location and given identical irrigation and handling as the treated plants. To compare the effects of treatments under tightly controlled conditions, plants were cultured, harvested, cleaned and weighed as per previously described methods. Treated plants were statistically analyzed in comparisons against controls. Each survey population held sufficient replicate sample numbers to make meaningful statistical analyses utilizing SPSS® software. Significance was determined at the 95% confidence interval (CI) of the difference. Counts of population numbers are denoted as “n” values. For experiments, radish “Cherry Bell” Raphanus sativus L., a root crop was planted and treated. […] Therefore, least concentrations were selected for statistical experimentation; and 200 l/ha foliar 1 mM MeM or 0.3 mM APM in nutrient-supplemented formulations were applied to 5 cm tall sprouts; while, Nutrient Controls were given foliar applications of identical solutions without the α-D-glycopyranosides; and no foliar solutions were applied to untreated controls which were otherwise identically cultivated and irrigated. For our quantification experiments, when improvements of root productivity over those of nutrient controls were visibly discernible 12 d after treatment, all populations of controls and treatments were harvested, and individual dry weights of treatment and control populations were analyzed."}, "corn": {"tested_on": "corn", "test": "Corn cultured in 700 μm silicate beads, root treatment", "conditions": "1 mM IG", "procedure": "Individual plants were started from seeds, bulbs, or vegetative clones, inserted into containers of pre-moistened microbeads. Seedlings included ryegrass and corn; bulbs were of Crocus and paperwhite narcissus; and vegetative cuttings were from Coleus. Seeds generally germinated and were selected according to day of emergence of first roots as control and treatment sets. Roots were treated thereafter.\n(§1) Plants were cultivated under controlled environmental conditions as follow: GE Ecolux® plant and aquarium F40T12 fluorescent illumination, photosynthetically active radiation (PAR) of 100 μEin·m^−2·s^−1, diel cycle of 16:8 h light:dark, 28:26° C., 10% to 20% relative humidity. Indoxyl glycopyranoside (IG) was formulated in water and applied and controls were given equal volumes of water without IG. […] Clear plastic 500 cc containers, perforated for drainage, were filled to a depth of 10 cm with up to 900 grams of microbeads each. Initially, basal plates of bulbs were immersed 1 cm into moistened 700 μm nmd silicate beads to initiate rooting. Within a week, first roots emerged and each bulb was treated with 0.1 ml of aqueous 10 mM IG. Controls were treated with addition of 0.1 ml water to their media. After 8 h uptake of the treatments, fertigation resumed in a manner consistent with pH-control. In another case, 0.3 mM 4-amino-phenyl-α-D-mannopyranoside (APM) was dissolved in water with 3 ppm Mn as EDTA, 6 ppm Ca as EDTA. A solution of the formulation was applied to rooted Crocus. APM-treated plants were compared to plants given identical control formulation without APM. Within five hours of treatment and, through fertigation, thereafter, all container cultures were regularly given equal volumes of nutribead solution. Controls were placed side-by-side and cultivated, likewise.\nFor all experiments, at 7 d to 14 d after treatment, microbeads were saturated with water. Immediately, individual plants gently were pulled and lifted out of the water-saturated silicate microbeads by hand. […] For paperwhites, volumes of entire roots were measured by displacement of water in glass beakers. […]"}, "paperwhite narcissus": {"tested_on": "paperwhite narcissus", "test": "Paperwhite narcissus bulbs cultured in 700 μm silicate beads, root treatment", "conditions": "16 days after treatment; n=6; p=0.01; controls 30 cc", "procedure": "as §1, with “Within five hours of treatment and, through fertigation, thereafter, all container cultures were regularly given equal volumes of nutribead solution. Controls were placed side-by-side and cultivated, likewise.” left out\n[…] For paperwhites, volumes of entire roots were measured by displacement of water in glass beakers. […]"}},
  "note": "Values joined by “and” are separate entries in the source; they are usually repeats but may differ in a detail not shown here. Equal entries are not always repeated.",
  "data": [
    {"molecule": "CO[C@H]1O[C@H](CO)[C@@H](O)[C@H](O)[C@@H]1O", "note": "[MeM, methyl-α-D-mannopyranoside]", "values": [
      {"measurement": "germination rates compared with media without the glycoside", "setting": "[1]", "value": "consistently higher"},
      {"measurement": "enhancement of mean dry weight over Nutrient Control", "setting": "Radish seedlings; 25 μM, 48 h", "value": "12% and ~11%"},
      {"measurement": "mean dry weight of whole plants", "setting": "Radish seedlings; 25 μM, 48 h", "value": 10, "unit": "mg"},
      {"measurement": "enhancement of mean dry weight over Nutrient Control", "setting": "Radish seedlings; 50 μM, 48 h", "value": 11, "unit": "%"},
      {"measurement": "mean dry weight of whole plants", "setting": "Radish seedlings; 50 μM, 48 h", "value": 11, "unit": "mg"},
      {"measurement": "mean dry weight of whole plants", "setting": "Radish seedlings; 100 μM, 48 h", "value": 10.9, "unit": "mg"},
      {"measurement": "visual comparison with Nutrient Control", "setting": "Radish seedlings; 500 μM, 24 h", "value": "enhanced pigmentation and general growth"},
      {"measurement": "enhancement of mean dry weight over Nutrient Control", "setting": "Radish seedlings; 500 μM, 48 h", "value": 11, "unit": "%"},
      {"measurement": "mean dry weight of whole plants", "setting": "Radish seedlings; 500 μM, 48 h", "value": 10.3, "unit": "mg"},
      {"measurement": "growth response compared to Nutrient Control (visual)", "setting": "Radish seedlings; 48 h, 1 mM TAM, 100 μM MP, 25 μM to 500 μM MeM, 10 μM APM", "value": "advanced growth responses"},
      {"measurement": "effect on plant growth / seedling yields without Ca2+ and Mn2+", "setting": "[2]", "value": "no significant effect"},
      {"measurement": "root mean dry weight over the Nutrient Control", "setting": "[3]; foliar 1 mM with nutrients", "value": "highly significant (n=72; p=0.001) increase"},
      {"measurement": "root weight increase over controls", "setting": "[3]; foliar 1 mM, 200 l/ha, harvest 12 d after treatment, n=72, p=0.001", "value": 30, "unit": "%"},
      {"measurement": "active concentration applied for growth response", "setting": "[3]; foliar, radish", "value": 1, "unit": "mM"}
    ]},
    {"molecule": "Indoxyl glycopyranoside [IG]", "values": [
      {"measurement": "taproot total length", "setting": "corn; after a week, control 5 cm", "value": 7, "unit": "cm"},
      {"measurement": "dry weight of entire plant", "setting": "corn; control plant 0.2 g", "value": 0.3, "unit": "g"},
      {"measurement": "dry weight of separated roots", "setting": "corn; control roots 0.03 g", "value": 0.04, "unit": "g"},
      {"measurement": "mean root volume", "setting": "paperwhite narcissus", "value": 37, "unit": "cc per plant"}
    ]}
  ]
}
